Target: T1, PRKACB (PRKAC beta) (Homo sapiens, UniProt P22694)
T1 construct: purchased Thermo Fisher Scientific (Life Technologies) SelectScreen
Test: SelectScreen LanthaScreen
Assay type: binding
Conditions: read-out: % displacement
Procedure, shortened: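 NU5455 was profiled across the SelectScreen Broad panel of kinase activity and binding assays. Z'LYTE reactions such as CSF1R ran at apparent Km ATP, while the Adapta CAMK1 assay used ATP listed as 10. Values are given as percent.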

In the case of `CN(C(=O)CN1CCOCC1)c1ccc2sc3c(-c4cccc5c(=O)cc(N6CC7CCC(C6)O7)oc45)cccc3c2c1` [NU5455], the inhibition at 1 µM is reported as -6.8%.

Reference: PMC6934184, “Selective DNA-PKcs inhibition extends the therapeutic index of localized radiotherapy and chemotherapy” (The Journal of Clinical Investigation, 2019)
